In patent US9890142B2, “PDE4 inhibitor” (Meiji Seika Pharma Co., Ltd., priority 2013, dated 2018):

system: PDE4; experiment: Evaluation of PDE4 inhibition (scintillation proximity assay); type: biochemical; details: inhibition rate relative to control, test compound at 1 μM
Protocol: Test Example 1 Evaluation of PDE4 Inhibition
The PDE4 inhibitory activity was measured by using scintillation proximity assay (SPA) as follows: one in which a sample compound dissolved in dimethyl sulfoxide was diluted 10-fold with a buffer solution for reaction containing 50 mM Tris-HCl, pH 7.5, 8.3 mM MgCl2, 1.7 mM EDTA and 0.3 mg/mL bovine serum albumin (BSA) was added at 10 μL/well to a 96-well assay plate. Further, PDE4 diluted 750-fold with a buffer solution for reaction was added at 50 μL/well, then [2,8-^3H]-Adenosine-3′,5′-cyclic phosphate triethylammonium salt diluted 1000-fold with a buffer solution for reaction was added at 40 μL/well, and the plate was left standing at room temperature for 120 minutes. Thereafter, a suspension of RNA binding YSi-SPA Beads containing 200 mM ZnSO4 was added at 50 μL/well, and the plate was left standing at room temperature for 15 minutes to adsorb the enzyme reaction product onto the Beads. Thereafter, the radioactivity was measured with a liquid scintillation counter for 96-well plates. When one supplemented with only a buffer solution for reaction without adding the enzyme preparation was used as a blank and one supplemented with the enzyme preparation but supplemented with only dimethyl sulfoxide instead of the sample solution was used as a control, the inhibition rate of the test compound relative to the control was calculated according to the following calculation expression: Inhibition rate (%)={1−(Numeric value from the addition of each sample−Blank value)/(Control value−Blank value)}×100

| Compound | PDE4 inhibitory activity (1 μM (%)) [%] |
| --- | --- |
| C[C@H]1CNCCN1c1nc2cc(Cl)cc(-c3cccnc3)c2o1 [Example 42, (S)-5-Chloro-2-(2-methylpiperazin-1-yl)-7-(pyridin-3-yl)benzoxazole] | 66 |
| C[C@H]1CNCCN1c1nc2cc(Cl)cc(-c3ccncc3)c2o1 [Example 43, (S)-5-Chloro-2-(2-methylpiperazin-1-yl)-7-(pyridin-4-yl)benzoxazole] | 61 |
| C[C@H]1CNCCN1c1nc2cc(Cl)cc(C3CCCCC3)c2o1 [Example 44, (S)-5-Chloro-7-cyclohexyl-2-(2-methylpiperazin-1-yl)benzoxazole] | 64 |
| C[C@H]1CNCCN1c1nc2cc(Cl)cc(-n3nccn3)c2o1 [Example 45, (S)-5-Chloro-2-(2-methylpiperazin-1-yl)-7-(2H-1,2,3-triazol-2-yl)benzoxazole] | 87 |
| C[C@H]1CNCCN1c1nc2cc(Cl)cc(-n3cncn3)c2o1 [Example 46, (S)-5-Chloro-2-(2-methylpiperazin-1-yl)-7-(1H-1,2,4-triazol-1-yl)benzoxazole] | 29 |
| CC(C)Cc1cc(Cl)cc2nc(N3CCNC[C@@H]3C)oc12 [Example 47, (S)-5-Chloro-7-isobutyl-2-(2-methylpiperazin-1-yl)benzoxazole] | 35 |
| C[C@H]1CNCCN1c1nc2cc(Cl)cc(-c3ccccc3CO)c2o1 [Example 48, (S)-5-Chloro-2-(2-methylpiperazin-1-yl)-7-(2-hydroxymethylphenyl)benzoxazole] | 53 |
| C[C@H]1CNCCN1c1nc2cc(Cl)cc(-c3nccn3C)c2o1 [Example 49, (S)-5-Chloro-7-(1-methyl-1H-imidazol-2-yl)-2-(2-methylpiperazin-1-yl)-benzoxazole] | 17 |
| C[C@H]1CNCCN1c1nc2cc(Cl)cc(-c3ncc[nH]3)c2o1 [Example 50, (S)-5-Chloro-7-(1H-imidazol-2-yl)-2-(2-methylpiperazin-1-yl)benzoxazole] | 62 |
| C[C@H]1CNCCN1c1nc2cc(Cl)cc(CC3CCCCC3)c2o1 [Example 51, (S)-5-Chloro-7-(cyclohexylmethyl)-2-(2-methylpiperazin-1-yl)-benzoxazole] | 12 |
| C[C@H]1CNCCN1c1nc2cc(Cl)cc(OC3CCCCC3)c2o1 [Example 52, (S)-5-Chloro-7-(cyclohexyloxy)-2-(2-methylpiperazin-1-yl)benzoxazole] | 57 |
| C[C@H]1CNCCN1c1nc2cc(Cl)cc(OCC3CC3)c2o1 [Example 53, (S)-5-Chloro-7-(cyclopropylmethoxy)-2-(2-methylpiperazin-1-yl)benzoxazole] | 50 |
| C[C@H]1CNCCN1c1nc2cc(Cl)cc(-c3ccsn3)c2o1 [Example 54, (S)-5-Chloro-7-(isothiazole-3-yl)-2-(2-methylpiperazin-1-yl)benzoxazole] | 92 |
| C[C@H]1CNCCN1c1nc2cc(Cl)cc(-c3ncc(CO)s3)c2o1 [Example 55, (S)-5-Chloro-7-(5-hydroxymethylthiazol-2-yl)-2-(2-methylpiperazin-1-yl)benzoxazole] | 80 |
| C[C@H]1CNCCN1c1nc2cc(Cl)cc(-c3ncccn3)c2o1 [Example 56, (S)-5-Chloro-2-(2-methylpiperazin-1-yl)-7-(pyrimidin-2-yl)benzoxazole] | 87 |
| C[C@H]1CNCCN1c1nc2cc(Cl)cc(-c3ccc(Cl)s3)c2o1 [Example 57, (S)-5-Chloro-7-(5-chlorothiophen-2-yl)-2-(2-methylpiperazin-1-yl)benzoxazole] | 54 |
| C[C@H]1CNCCN1c1nc2cc(Cl)cc(-c3ccc(Cl)cn3)c2o1 [Example 58, (S)-5-Chloro-7-(5-chloropyridin-2-yl)-2-(2-methylpiperazin-1-yl)benzoxazole] | 77 |
